This is an account of results in PubChem BioAssay (NCI).

SMILES strings stand for the structures.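 Results reflect a 48-hour exposure of cells in 96-well plates to compound at five concentrations. The concentration for 50% growth inhibition is given as GI50. At the TGI there is no net growth.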

Among the test systems are MALME-3M melanoma; NCI-H23 lung; UACC-257 melanoma; HCT-116 colon; HCC-2998 colon; SW-620 colon; A498 renal; COLO 205 colon; HT29 colon; OVCAR-5 ovarian.
Holding throughout (experiment): inhibition of tumour cell growth, NCI panel, 48 h

For the compound `N=C(N)c1csc([C@@H]2O[C@H](CO)[C@@H](O)[C@H]2O)n1`, the TGI with MALME-3M melanoma, in the test on NCI-H23 lung, with UACC-257 melanoma, in the test with HCT-116 colon, in the test on HCC-2998 colon and in the test on SW-620 colon was more than 100 µM throughout.

On to `c1cn2cc(-c3ccc4ncn(C5CCCCC5)c4c3)nc(-c3ccc4c(c3)ncn4C3CCCCC3)c2n1`, for which the GI50 was 1.77 µM in the test on A498 renal; 2.11 µM in the test on MALME-3M melanoma; 2.1 µM with UACC-257 melanoma; 1.93 µM with COLO 205 colon; 1.81 µM with HCC-2998 colon; 2.44 µM in the test with HT29 colon. Further, the TGI with A498 renal came out at 3.22 µM; in the test on MALME-3M melanoma it was 3.75 µM; in the test with UACC-257 melanoma, 3.62 µM; in the test with COLO 205 colon it was 3.79 µM; in the test on HCC-2998 colon, 3.45 µM; in the test on HT29 colon it was 5.2 µM.

`CCC(=O)NC(Nc1ccc(O)cc1)(C(F)(F)F)C(F)(F)F`: the TGI with A498 renal, with OVCAR-5 ovarian, in the test on MALME-3M melanoma, with NCI-H23 lung, in the test with UACC-257 melanoma and in the test with HCT-116 colon was more than 100 µM in each case. For the same compound, the TGI with HCC-2998 colon and with HT29 colon was more than 100 µM each time.

Turning to `Nc1ccc2c3c(n(CCCCl)c(=O)c2c1)-c1cc2c(cc1C3=O)OCO2`, the GI50 in the test with OVCAR-5 ovarian was more than 100 µM; in the test with MALME-3M melanoma, 7.79 µM; with NCI-H23 lung, 0.562 µM; in the test with UACC-257 melanoma, more than 100 µM; in the test on COLO 205 colon it was more than 100 µM; in the test with HCC-2998 colon, more than 100 µM. Moreover, the GI50 with SW-620 colon and with HT29 colon was more than 100 µM in each case. Besides, the TGI with OVCAR-5 ovarian is more than 100 µM; in the test with MALME-3M melanoma it was more than 100 µM; in the test with NCI-H23 lung, 25.8 µM; with UACC-257 melanoma, more than 100 µM; in the test with COLO 205 colon it was more than 100 µM; in the test on HCC-2998 colon it was more than 100 µM. The TGI in the test with SW-620 colon and in the test with HT29 colon was more than 100 µM in each case.

For the compound `CC(C)(C)[Si](C)(C)OCC1CCC(n2cnc3c(N)ncnc32)O1` (stereo not drawn), the TGI with A498 renal, in the test with OVCAR-5 ovarian, with NCI-H23 lung, in the test with UACC-257 melanoma, with HCT-116 colon and with COLO 205 colon was more than 100 µM each time. Moreover, the TGI in the test on SW-620 colon and in the test with HT29 colon was more than 100 µM in each case.

As to `NC(CCP(=O)(O)CCC1C=CC=CC1)C(=O)O` (stereo not drawn), the TGI in the test on OVCAR-5 ovarian, in the test with NCI-H23 lung, in the test with UACC-257 melanoma, with HCT-116 colon, in the test with COLO 205 colon and with HCC-2998 colon was more than 100 µM throughout. Besides, the TGI in the test on SW-620 colon and in the test on HT29 colon was more than 100 µM in each case.

Turning to `COC(=O)c1ccc(N=NN(C)COc2ccc([N+](=O)[O-])cc2)cc1`, the TGI with A498 renal, in the test with OVCAR-5 ovarian, with MALME-3M melanoma, in the test on NCI-H23 lung, in the test on UACC-257 melanoma and with HCT-116 colon was more than 100 µM each time. Moreover, the TGI with COLO 205 colon, with HCC-2998 colon, with SW-620 colon and in the test with HT29 colon was more than 100 µM throughout.

Take `COc1cc(C2=C(C#N)C(N)OC3=C2COc2ccccc23)cc(OC)c1OC` (stereo not drawn): the TGI in the test on A498 renal was 56.3 µM; with OVCAR-5 ovarian it was more than 100 µM; in the test on MALME-3M melanoma it was 32.3 µM; in the test with NCI-H23 lung, more than 100 µM; with UACC-257 melanoma, more than 100 µM; in the test on HCT-116 colon it was 43.5 µM. Moreover, the TGI with COLO 205 colon is more than 100 µM; with HCC-2998 colon it was 56.8 µM; in the test on SW-620 colon it was more than 100 µM; in the test with HT29 colon, more than 100 µM.

Regarding `NNc1nc2ccccc2s1`, the TGI in the test on A498 renal, with OVCAR-5 ovarian, in the test on MALME-3M melanoma, in the test on NCI-H23 lung, in the test on UACC-257 melanoma and with HCT-116 colon was more than 100 µM in each case. Also, the TGI in the test on COLO 205 colon, in the test with HCC-2998 colon, in the test on SW-620 colon and in the test on HT29 colon was more than 100 µM in each case.

As to `O=C(O)C1Cc2c([nH]c3ccccc23)C=N1` (stereo not drawn), the TGI with A498 renal, in the test on OVCAR-5 ovarian, with MALME-3M melanoma, with NCI-H23 lung, in the test with UACC-257 melanoma and in the test on HCT-116 colon was more than 100 µM each time. Moreover, the TGI in the test with COLO 205 colon, with HCC-2998 colon, in the test with SW-620 colon and in the test with HT29 colon was more than 100 µM each time.
